Laboratory results published in US20190177774A1, “MOLECULAR REFERENCE CONTROLS” (STRECK, INC., priority 2016, published 2019).

Columns and labels:
Assay in all cases: Time to stabilization (viability and sterility after addition of stabilizer)
E. coli = format: cell-based, Escherichia coli
Method: (§1) In one example, bacterial cells containing target gene sequences were stabilized with various cross-linkers and evaluated by microbiological methods. Viability and sterility were evaluated at various time points following addition of stabilizer. Time to stabilization was evaluated for particular bacteria/stabilizer combinations as shown below in Table 1.

C. psuedo = format: cell-based, Corynebacterium pseudodiphtheriticum
Method: as §1

N. sicca = format: cell-based, Neisseria sicca
Method: as §1

O=C(CCCCCCC(=O)ON1C(=O)CC(S(=O)(=O)O)C1=O)ON1C(=O)CC(S(=O)(=O)O)C1=O (centres unmarked) [Bis[sulfosuccinimidyl] Suberate]
Time to Stabilization (E. coli): >5 days

O=C(CCCCCCC(=O)ON1C(=O)CCC1=O)ON1C(=O)CCC1=O [Disuccinimidyl Suberate]
Time to Stabilization (E. coli): 5 days

C=O [Formaldehyde]
Time to Stabilization (C. psuedo): 24 h
Time to Stabilization (N. sicca): 24 h
Time to Stabilization (E. coli): 1 days

O=CCCCC=O [Glutaraldehyde]
Time to Stabilization (C. psuedo): 24 h
Time to Stabilization (N. sicca): 2 h
Time to Stabilization (E. coli): 0.083 days

o-Phthalaldehyde
Time to Stabilization (C. psuedo): 24 h
Time to Stabilization (N. sicca): 2 h
Time to Stabilization (E. coli): 0.0104 days
